Source: patent US20230059107A1, “STABLE TOPICAL COMPOSITIONS OF FENOLDOPAM” (TARO PHARMACEUTICAL INDUSTRIES LTD., priority 2019, published 2023)
Read-outs that look alike come from different tables or passages of the source. Marks after values point to notes of the source that are not given here.

What was measured:
[1] = tested on: psoriatic xenotransplants (normal human skin grafted, psoriatic patient T-cell injected); assay: Human skin xenotransplant model of psoriasis in beige-SCID mice: histological evaluation and epidermal thickness; type: in vivo; settings: for Mean epidermal thickness: mean of the group
Method: The efficacy of the topical stable Fenoldopam compositions developed according to the current disclosure for the treatment of psoriasis is evaluated in a human skin xenotransplant model in mice. Human skin xenotransplant models are optimally suited for performing preclinical assays that explore novel anti-psoriatic agents/treatment strategies before initiating clinical trials. The purpose of this study is to evaluate the effectiveness of Fenoldopam mesylate formulations on the histological parameters of psoriasis in the human T-cell-driven model of psoriasis.
The patients included in the study have classic plaque psoriasis, and were not treated for the disease. Normal skin from one healthy volunteer is obtained for grafting.
Healthy human skin pieces with a width of 0.4 mm and surface area of 1.5×1.5 cm are provided from residual skin of routine plastic surgery procedures from the Plastic Surgery Department of the Rambam Health Care Campus, Haifa, Israel. In addition, 20 mL blood samples were taken from the psoriatic patients.
The normal healthy human donor skin is transplanted onto the Beige-severe combined immuno-deficient mice (SCID) (weight ˜20 g).
The mice are divided into several treatment groups. Mice of each group receive activated allogeneic T-cells expressing high levels of NK cells receptors from the psoriatic donor.
Peripheral Blood Mononuclear Cells (PBMCs) from the psoriatic patients' blood are isolated and cultured in the presence of a high dose of IL-2 (100 U/mL of media) for 14 days to activate allogeneic T-cells expressing high levels of NK cells receptors.
Four weeks following the engraftment, each mouse is injected with 1×10^7 activated allogeneic IL2-enriched PBMCS from psoriatic patients (1×10^7 cells injected/mouse). Cells from different psoriasis patients are distributed equally between treatment groups. Each patient is represented in each treatment group.
Two weeks following the injections, the mice are divided randomly and treated daily for 14 constitutive days with the different topical formulations.
(§1) Fourteen days after starting the treatment (four weeks following the injections), blood samples are taken and the skin is harvested. The grafts are analyzed histologically and immunohistochemically for psoriatic parameters.
In this model, a psoriasis-like phenotype is induced in normal human skin grafted onto beige-severe combined immunodeficient mice by intradermal injection of natural killer/T-cells derived from psoriatic patients (Gilhar et al., J Invest Dermatol. 2002 Aug;119(2):384-91.).
The purpose of these further experiments was to verify the therapeutic effect of FMT and compare the therapeutic effects of two doses (1% versus 2%) of two different formulations (cream versus gel).
In order to address the aim of the experiment, the psoriatic humanized mice were established. 10 psoriatic patients were recruited (seven males and three females), mean age 44 years, ranging from 22 to 61 years for testing. All patients had classic plaque psoriasis. None of the patients had been treated. Normal skin from one healthy volunteer was obtained for grafting.
The experiment comprised 72 mice divided into eight groups (Table 10). All of the mice were injected with T-cells expressing NK receptors obtained from psoriatic patients according to the protocol. Thereafter, the mice were separated as follows: Group 1: non-treated control; Group 2: dexamethasone; Group 3: FMT Gel 1%; Group 4: FMT Gel 2%; Group 5: Gel (vehicle); Group 6: FMT Cream 1%; Group 7: FMT Cream 2%; and Group 8: Cream (vehicle). All groups were treated from day 14 until day 28 post T-cells injection.

[2] = tested on: inflammatory markers of the psoriatic xenotransplants (Ki-67, HLA-DR, CD8, CD4, IL-17); assay: Human skin xenotransplant model of psoriasis: immunohistochemical staining for Ki-67, HLA-DR, CD8, CD4 and IL-17; type: in vivo
Method: as §1
We then stained skin sections derived from the various human xenotransplants for Ki-67 and HLA-DR: the first, a marker of cellular hyperproliferation and the second, for immune stimulation. Strong expression of Ki-67 was observed along the lower part of the epidermis in all control and vehicle groups and in the non-responders FMT xenotransplants. […] However, weak or absent HLA-DR expression was observed along the epidermis in the responders transplants treated with FMT.
Negative expression—no staining Mild—minor level of cell infiltrates of positive cells along the dermis Dense—intense level of cell infiltrates of positive cells along the dermis
To characterize the inflammatory infiltrate in the skin, we examined the expression of CD8, CD4 and IL-17+cells, which mark T lymphocytes (FIG. 1 and Tables 15, 16).
Negative expression—no staining Mild—minor level of cell infiltrates of positive cells along the dermis Dense—intense level of cell infiltrates of CD8+, CD4+IL17+positive cells along the dermis

[3] = cited from earlier work
[4] = topical bid, day 14 until day 28 post T-cells injection
[5] = intense level of cell infiltrates
[6] = minor level of cell infiltrates

Which Epidermal thickness ([1]; Donor 1) does the source give for `C[C@@H]1C[C@H]2[C@@H]3CCC4=CC(=O)C=C[C@]4(C)[C@@]3(F)[C@@H](O)C[C@]2(C)[C@@]1(O)C(=O)CO` [Dexamethasone] here?
The Epidermal thickness was 338 μm.

And the Epidermal thickness ([1]; Donor 2)?
Its Epidermal thickness is 280 μm.

And the Epidermal thickness ([1]; Donor 3)?
The Epidermal thickness was 290 μm.

What about the Epidermal thickness ([1]; Donor 4) of the same compound?
Its Epidermal thickness is 300 μm.

What about the Epidermal thickness ([1]; Donor 5) of the same compound?
Its Epidermal thickness is 305 μm.

And the Epidermal thickness ([1]; Donor 6)?
Its Epidermal thickness is 260 μm.

And the Mean epidermal thickness ([1]; listed as Dexa)?
Its Mean epidermal thickness is 295* μm.

What about the Mean epidermal thickness ([1]; listed as dexamethasone) of the same compound?
The Mean epidermal thickness was 295 ±26 μm.

What about the “Complete Recovery (grafts/total)” value [1, 4] of the same compound?
Its value is 5/6.

And the “Partial Recovery (grafts/total)” value [1, 4]?
Its value is 1/6.

And the “Psoriatic Features (grafts/total)” value [1, 4]?
Its value is 0/6.

And the “Epidermal HLA-DR Expression: Diffuse (grafts/total)” value ([2]; Diffuse—more than 50% of the epidermal area)?
The value was 0/6.

What about the “Epidermal HLA-DR Expression: Focal (grafts/total)” value ([2]; Focal—less than 50% of the epidermal area) of the same compound?
The value was 1/6.

What about the “CD4 Expression: Dense” value ([2]; Non responders grafts) of the same compound?
Its value is 0/6.

What about the “CD4 Expression: Negative/Mild” value ([2]; Non responders grafts) of the same compound?
Its value is 0/6.

What about the “CD8 Expression: Dense” value ([2]; Non responders grafts) of the same compound?
The value was 0/6.

What about the “CD8 Expression: Negative/Mild” value ([2]; Non responders grafts) of the same compound?
The value was 0/6.

What about the “Dermal HLA-DR Expression: Dense” value ([2]; Non responders grafts) of the same compound?
Its value is 0/6.

And the “Dermal HLA-DR Expression: Negative/Mild” value ([2]; Non responders grafts)?
Its value is 0/6.

What about the “IL-17 Expression: Dense” value ([2]; Non responders grafts) of the same compound?
The value was 0/6.

And the “IL-17 Expression: Negative/Mild” value ([2]; Non responders grafts)?
Its value is 0/6.

What about the “CD4 Expression: Dense” value ([2]; Responders grafts) of the same compound?
Its value is 0/6.

And the “CD4 Expression: Negative/Mild” value ([2]; Responders grafts)?
Its value is 6/6.

And the “CD8 Expression: Dense” value ([2]; Responders grafts)?
The value was 0/6.

And the “CD8 Expression: Negative/Mild” value ([2]; Responders grafts)?
The value was 6/6.

And the “Dermal HLA-DR Expression: Dense” value ([2]; Responders grafts)?
Its value is 0/6.

What about the “Dermal HLA-DR Expression: Negative/Mild” value ([2]; Responders grafts) of the same compound?
Its value is 6/6.

What about the “IL-17 Expression: Dense” value ([2]; Responders grafts) of the same compound?
Its value is 0/6.

What about the “IL-17 Expression: Negative/Mild” value ([2]; Responders grafts) of the same compound?
Its value is 6/6.

And the “Epidermal HLA-DR Expression: Negative (grafts/total)” value ([2]; in vivo)?
The value was 5/6.

What about the “CD4 positive cells along the dermis: Dense” value [2, 5] of the same compound?
The value was 0/10.

What about the “CD8 positive cells along the dermis: Dense” value [2, 5] of the same compound?
Its value is 0/10.

And the “IL-17 positive cells along the dermis: Dense” value [2, 5]?
The value was 0/10.

What about the “Dermal HLA-DR Expression: Dense (grafts/total)” value ([2]; intense level of cell infiltrates of positive cells along the dermis) of the same compound?
Its value is 0/6.

And the “CD4 positive cells along the dermis: Mild” value [2, 6]?
The value was 2/6.

And the “CD8 positive cells along the dermis: Mild” value [2, 6]?
The value was 1/6.

What about the “IL-17 positive cells along the dermis: Mild” value [2, 6] of the same compound?
Its value is 1/6.

What about the “Dermal HLA-DR Expression: Mild (grafts/total)” value ([2]; minor level of cell infiltrates of positive cells along the dermis) of the same compound?
The value was 2/6.

And the “CD4 positive cells along the dermis: Negative” value ([2]; no staining)?
Its value is 4/6.

And the “CD8 positive cells along the dermis: Negative” value ([2]; no staining)?
Its value is 5/6.

What about the “Dermal HLA-DR Expression: Negative (grafts/total)” value ([2]; no staining) of the same compound?
The value was 4/6.

What about the “IL-17 positive cells along the dermis: Negative” value ([2]; no staining) of the same compound?
The value was 5/6.

Which solubility ([3]; in propylene glycol) does the source give for `CS(=O)(=O)O.Oc1ccc(C2CNCCc3c2cc(O)c(O)c3Cl)cc1` (centres unmarked) [Fenoldopam mesylate, 6-chloro-2,3,4,5-tetrahydro-1-(4-hydroxyphenyl)-1H-3-benzazepine-7,8-diol, methanesulfonate] here?
The solubility was “soluble”.

And the solubility ([3]; in water, ethanol and methanol)?
Its solubility is “sparingly soluble”.
